Assay results reported in PubChem BioAssay (NCI).
“And” between values parts separate entries of the source, which are not always exact repeats. Identical values can stand only once.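 Where inhibition never reached the appropriate level, the endpoint shown equals the highest concentration tested. Otherwise, values were interpolated linearly from a five-concentration, 48-hour dose response in 96-well plates. At the GI50, growth is halved. TGI marks complete inhibition of growth.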

Columns and labels:
Assay in all cases: NCI-60 cell line screen, 48 h
BT-549 breast = test system: BT-549 breast
CAKI-1 renal = test system: CAKI-1 renal
HOP-92 NSCLC = test system: HOP-92 NSCLC
KM12 colon = test system: KM12 colon
MCF7 breast = test system: MCF7 breast
MDA-MB-231 breast = test system: MDA-MB-231 breast
NCI-H460 lung = test system: NCI-H460 lung
NCI-H522 lung = test system: NCI-H522 lung
SF-295 CNS = test system: SF-295 CNS
UACC-62 melanoma = test system: UACC-62 melanoma

Row | Structure (SMILES) | GI50 (BT-549 breast) | TGI (BT-549 breast) | GI50 (CAKI-1 renal) | TGI (CAKI-1 renal) | GI50 (HOP-92 NSCLC) | TGI (HOP-92 NSCLC) | GI50 (KM12 colon) | TGI (KM12 colon) | GI50 (MCF7 breast) | TGI (MCF7 breast) | GI50 (MDA-MB-231 breast) | TGI (MDA-MB-231 breast) | GI50 (NCI-H460 lung) | TGI (NCI-H460 lung) | GI50 (NCI-H522 lung) | TGI (NCI-H522 lung) | GI50 (SF-295 CNS) | TGI (SF-295 CNS) | GI50 (UACC-62 melanoma) | TGI (UACC-62 melanoma)
1 | CN1CCN(c2cc(F)c(NC3=C(Cl)C(=O)c4ncccc4C3=O)c(F)c2)CC1 | 1.63 µM | 3.06 µM | 1.27 µM | 2.52 µM | 1.69 µM | 3.22 µM | 2.01 µM | 4.3 µM | 1.07 µM | 2.87 µM | 1.94 µM | 3.87 µM | 2.1 µM | 8.49 µM | 0.559 µM | 2.26 µM | 1.68 µM | 3.23 µM | 1.67 µM | 3.17 µM
2 | Cc1cc(NC(=O)NCCCOc2ccc(N3C(N)=NC(N)=NC3(C)C)cc2Cl)ccc1S(=O)(=O)F | 4.85 µM | 21.7 µM | > 63.7 µM | > 100 µM | 2.85 µM | 45.6 µM | 0.631 µM | 17 µM | 0.614 µM | 22.5 µM | 7.16 µM | > 100 µM | 0.259 µM | 14.7 µM | 1.11 µM | 25.2 µM | 3.26 µM | > 100 µM | 0.608 µM | 24.9 µM
3 | CC(NC(=O)c1ccc(Cl)c(Cl)c1)c1ccc(-c2ccccc2)cc1 (configuration not stated) | – | > 100 µM | – | > 100 µM | – | > 100 µM | – | > 100 µM | – | > 100 µM | – | > 100 µM | – | > 100 µM | – | > 100 µM | – | > 100 µM | – | > 100 µM
4 | CC[C@@H]1C(=O)N(C)c2cnc(Nc3ccc(C(=O)NC4CCC(N5CCN(CC6CC6)CC5)CC4)cc3OC)nc2N1C(C)C (some centres not stated) | 0.078 µM and 0.0387 µM | > 10 µM and 6.44 µM | 0.109 µM and 0.39 µM | > 10 µM and 10.7 µM | 0.0441 µM and 0.0596 µM | > 2.9 µM and 5.99 µM | 0.0069 µM and < 0.01 µM | > 10 µM and 8.15 µM | 0.00507 µM and < 0.01 µM | 2.01 µM and 2.62 µM | 0.0186 µM and 0.0304 µM | > 4.6 µM and 7.06 µM | 0.0123 µM and 0.0297 µM | > 10 µM and 1.86 µM | 0.00462 µM and < 0.0115 µM | 0.0822 µM and 0.0564 µM | 0.0353 µM and 0.0406 µM | 2.51 µM and 2.44 µM | 0.0356 µM and 0.0388 µM | > 8.3 µM and 13.3 µM
5 | C=CC(=O)N1CCN([C@@H](CC2CC2)c2ccc([C@H](C)Nc3ncc4c(n3)N(CC)C(=O)OC4)cc2)CC1 | 4.7 µM | 16.6 µM | 5.23 µM | 19 µM | 1.47 µM | 8.06 µM | 15.1 µM | 34.6 µM | 6.66 µM | 24.6 µM | 12 µM | 27.4 µM | 14.2 µM | 29.7 µM | 10.2 µM | 26.1 µM | 13 µM | 26.3 µM | 12.1 µM | 26.1 µM
6 | CCOc1ccc2nc3cc(N)ccc3c(N)c2c1 | 2.23 µM and 1.8 µM | 8.28 µM and 4.91 µM | 36.1 µM and 22.8 µM | > 100 µM and 76.3 µM | 3.4 µM and 2.96 µM | 16.4 µM and 11.3 µM | 2.73 µM and 1.06 µM | 17.1 µM and 12.9 µM | 2.05 µM and 1.66 µM | 7.75 µM and 5.5 µM | 10.2 µM and 4.44 µM | 22.8 µM and 17.6 µM | 3.13 µM and 3.9 µM | 12.6 µM and 15.7 µM | 1.8 µM and 1.69 µM | 4.54 µM and 5.1 µM | 2.09 µM and 1.98 µM | 11.9 µM and 11.4 µM | 4.7 µM and 2.56 µM | 18.5 µM and 12 µM
7 | O=C(O)c1c2c(c(O)c3c1CN(C1CCCCC1)CO3)OCN(C1CCCCC1)C2 | – | > 100 µM | – | > 100 µM | – | > 100 µM | – | > 100 µM | – | 39.2 µM | – | > 100 µM | – | 35.1 µM | – | 95.9 µM | – | > 100 µM | – | > 100 µM
8 | CC(=O)Nc1ccc(CC[C@H]2CCC/C=C/[C@@H]3C[C@H](O)C[C@H]3[C@H](O)/C=C/C(=O)O2)cc1 | 0.182 µM | > 100 µM | 0.361 µM | > 21.2 µM | 0.217 µM | 0.791 µM | 0.0983 µM | 0.315 µM | 0.157 µM | 0.338 µM | 0.0826 µM | 0.252 µM | 0.365 µM | > 100 µM | 0.261 µM | 0.654 µM | 0.201 µM | > 100 µM | 0.0434 µM | > 92.4 µM
9 | COc1ccc2c(c1[N+](=O)[O-])CC[C@@H]1[C@@H]2CC[C@]2(C)C(=O)CC[C@@H]12 | 470 µM | > 1000 µM | 660 µM | > 1000 µM | 289 µM | – | > 1000 µM | > 1000 µM | 998 µM | > 1000 µM | 400 µM | > 905 µM | > 756 µM | – | 590 µM | > 957 µM | 342 µM | > 968 µM | 387 µM | –
10 | CCCCCCCCCCCC1=NC(C)(C)CN1C(C)C | 9.22 µM | 23.4 µM | 2.68 µM | 14 µM | 1.19 µM | 5.17 µM | 1.94 µM | 3.96 µM | 2.81 µM | 8.68 µM | 3.67 µM | 14 µM | 3.22 µM | 9.28 µM | 2.65 µM | 10.8 µM | 3.05 µM | 10.7 µM | 1.75 µM | 3.54 µM
11 | CC(C)(C)CNCCO | – | > 100 µM | – | > 100 µM | – | > 100 µM | – | > 100 µM | – | > 100 µM | – | > 100 µM | – | > 100 µM | – | > 100 µM | – | > 100 µM | – | > 100 µM
12 | O=C(Nc1ccccc1/C=C/c1n[nH]c2ccccc12)c1ccccc1 | 3.97 µM | 16.1 µM | 2.98 µM | 16.9 µM | 0.218 µM | 5.25 µM | 0.0648 µM | 1.65 µM | 0.505 µM | 13.2 µM | 3.45 µM | 15.7 µM | 2.15 µM | 11.2 µM | 9.28 µM | 24 µM | 2.13 µM | 5.57 µM | 2.88 µM | 13 µM
13 | COc1ccc(-c2nn3ncccc3c2-c2ccnc(Nc3ccc(F)c(F)c3)n2)cc1 | 15 µM | > 25 µM | 7.65 µM | > 23.4 µM | 3.99 µM | > 25 µM | 9.45 µM | > 25 µM | 10.6 µM | > 25 µM | 9.1 µM | > 25 µM | 7.4 µM | > 25 µM | 8.18 µM | > 23.6 µM | 4.26 µM | > 25 µM | 7.12 µM | > 25 µM
14 | CC(C)Cn1cnc2c(N)nc3ccccc3c21 | 43.8 µM | > 100 µM | 34.8 µM | > 100 µM | 31.1 µM | > 100 µM | 56.6 µM | > 100 µM | 29.4 µM | > 100 µM | 46 µM | > 100 µM | 23.1 µM | > 100 µM | 78.5 µM | > 100 µM | 51.3 µM | > 100 µM | 38.4 µM | > 100 µM
